Values quoted from earlier work as cited in patent US20250049933A1, “DRUG DELIVERY SYSTEM FOR TARGETED CANCER TREATMENT” (priority 2024, published 2025).

Key:
[1] = in vivo

oral bioavailability [1]: 9%
Structure (SMILES): Nc1ccn([C@@H]2O[C@H](CO)[C@@H](O)C2(F)F)c(=O)n1 [GEM, gemcitabine]
overall survival (pancreatic cancer): 6.7 months
